This note sets out measurements from patent US10017503B2, “Compounds, compositions, and methods for increasing CFTR activity” (Proteostasis Therapeutics, Inc., priority 2014, dated 2018).

The target of this assay is T1, ΔF508-CFTR (Homo sapiens, UniProt P13569, DEL508-508).
T1 construct: Primary lung epithelial cells homozygous for the Cystic Fibrosis-causing ΔF508 mutation were differentiated for a minimum of 4 weeks; endogenous in cells; host or cells: primary lung (bronchial) epithelial cells (hBE) homozygous for ΔF508, differentiated at an air-liquid interface
T1 sequence (P13569 with tags, fused parts or gaps DEL508-508): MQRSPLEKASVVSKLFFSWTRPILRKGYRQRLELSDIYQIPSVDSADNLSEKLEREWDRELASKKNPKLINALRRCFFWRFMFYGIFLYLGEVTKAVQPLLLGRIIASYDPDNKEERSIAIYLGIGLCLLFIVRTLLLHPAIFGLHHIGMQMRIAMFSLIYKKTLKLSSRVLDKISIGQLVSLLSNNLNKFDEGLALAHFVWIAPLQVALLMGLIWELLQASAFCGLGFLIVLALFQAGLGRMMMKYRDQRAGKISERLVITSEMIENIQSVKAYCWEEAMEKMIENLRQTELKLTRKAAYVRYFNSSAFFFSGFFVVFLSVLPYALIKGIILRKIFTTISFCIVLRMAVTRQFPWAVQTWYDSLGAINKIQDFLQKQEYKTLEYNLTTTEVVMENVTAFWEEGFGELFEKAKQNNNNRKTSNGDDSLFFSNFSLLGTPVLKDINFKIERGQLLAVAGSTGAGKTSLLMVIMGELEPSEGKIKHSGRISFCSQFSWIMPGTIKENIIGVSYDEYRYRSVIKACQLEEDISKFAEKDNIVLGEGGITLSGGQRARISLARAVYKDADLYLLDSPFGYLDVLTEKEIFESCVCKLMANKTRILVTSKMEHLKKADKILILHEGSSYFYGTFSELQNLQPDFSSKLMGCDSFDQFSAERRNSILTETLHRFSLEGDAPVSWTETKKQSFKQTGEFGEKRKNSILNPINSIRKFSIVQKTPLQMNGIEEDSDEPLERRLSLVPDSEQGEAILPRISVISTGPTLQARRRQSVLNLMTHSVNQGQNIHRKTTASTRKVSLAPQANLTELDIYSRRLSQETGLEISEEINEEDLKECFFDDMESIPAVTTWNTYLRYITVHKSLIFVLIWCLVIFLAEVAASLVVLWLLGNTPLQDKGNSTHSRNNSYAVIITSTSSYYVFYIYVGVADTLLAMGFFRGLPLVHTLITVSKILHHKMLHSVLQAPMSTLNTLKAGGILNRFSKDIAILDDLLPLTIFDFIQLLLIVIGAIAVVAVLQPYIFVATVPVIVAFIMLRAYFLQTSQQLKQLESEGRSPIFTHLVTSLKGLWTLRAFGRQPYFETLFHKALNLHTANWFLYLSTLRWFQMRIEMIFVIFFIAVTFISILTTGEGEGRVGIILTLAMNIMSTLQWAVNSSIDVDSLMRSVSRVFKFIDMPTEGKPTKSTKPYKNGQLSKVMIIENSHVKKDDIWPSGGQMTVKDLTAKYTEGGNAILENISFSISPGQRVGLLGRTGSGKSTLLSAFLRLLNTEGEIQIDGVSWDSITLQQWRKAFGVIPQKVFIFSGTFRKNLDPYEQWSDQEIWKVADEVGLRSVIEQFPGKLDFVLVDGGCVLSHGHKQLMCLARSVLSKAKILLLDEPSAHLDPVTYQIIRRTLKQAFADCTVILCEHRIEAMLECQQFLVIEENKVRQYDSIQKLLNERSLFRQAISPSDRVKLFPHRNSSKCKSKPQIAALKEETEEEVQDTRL
Nature of the assay: hBE equivalent current (Ieq) assay. It is filed as cell-based. The following applies: AUC of equivalent chloride current as % of VX-809 (1 uM); compound at 10 uM and VX-809 at 1 uM; primary hBE cells homozygous ΔF508, 24 h treatment. The protocol: ii. hBE Equivalent Current (Ieq) Assay Primary lung epithelial cells homozygous for the Cystic Fibrosis-causing ΔF508 mutation were differentiated for a minimum of 4 weeks in an air-liquid interface on Costar 24 well HTS filter plates prior to the equivalent current (Ieq) measurements. Cells were apically mucus-washed for 30 minutes 24 h prior to treatment with compounds. The basolateral media was removed and replaced with media containing the compound of interest diluted to its final concentration from DMSO stocks. Treated cells were incubated at 37° C. and 5% CO2 for 24 hours. At the end of the treatment period, the media was changed to the Ieq experimental solution for 30 minutes before the experiment and plates are maintained in a CO2-free incubator during this period. The plates containing the cells were then placed in pre-warmed heating blocks at 36° C.±0.5 for 15 minutes before measurements are taken. The transepithelial voltage (VT) and conductance (GT) were measured using a custom 24 channel current clamp (TECC-24) with 24 well electrode manifold. The Ieq assay measurements were made following additions with standardized time periods: 1. The baseline VT and GT values were measured for approximately 20 minutes. 2. Benzamil was added to block ENaC for 15 minutes. 3. Forskolin plus VX-770 were added to maximally activate ΔF508-CFTR for 27 minutes. 4. Bumetanide was added to inhibit the NaK2Cl cotransporter and shut-off secretion of chloride. The activity data captured was the area under the curve (AUC) for the traces of the equivalent chloride current. The AUC was collected from the time of the forskolin/VX-770 addition until the inhibition by bumetanide addition. Correction in response to compound treatment was scored as the increase in the AUC for compound-treated samples over that of vehicle-treated samples. (** indicates activity ≥200% of VX-809 (1 uM) with compound at 10 uM and VX-809 at 1 uM; * indicates activity 100-200% of VX-809 (1 uM) with compound at 10 uM and VX-809 at 1 uM. ^## indicates activity ≥200% of VX-809 (3 uM) with compound at 10 uM and VX-809 at 3 uM; ^# indicates activity 100-200% of VX-809 (3 uM) with compound at 10 uM and VX-809 at 3 uM.

Regarding `CC(O)c1nnc(NS(=O)(=O)CCNC(=O)c2cc(-c3ccccc3)on2)s1` (stereo in doubt) [Compound B8, (S)—N-(2-(N-(5-(1-hydroxyethyl)-1,3,4-thiadiazol-2-yl)sulfamoyl)ethyl)-5-phenylisoxazole-3-carboxamide], the Ieq activity entry is “* (activity 100-200% of VX-809 (1 uM) with compound at 10 uM and VX-809 at 1 uM)”.

With `CC(O)c1nnc(NS(=O)(=O)CCNC(=O)c2cc(-c3ccccc3)on2)s1` (stereo in doubt) [Compound B9, (R)—N-(2-(N-(5-(1-hydroxyethyl)-1,3,4-thiadiazol-2-yl)sulfamoyl)ethyl)-5-phenylisoxazole-3-carboxamide], the Ieq activity entry was “* (activity 100-200% of VX-809 (1 uM) with compound at 10 uM and VX-809 at 1 uM)”. On to `O=C(NCCCNS(=O)(=O)c1ncc[nH]1)c1cc(-c2ccccc2)on1` [Compound B1], for which the Ieq activity result was “** (activity ≥200% of VX-809 (1 uM) with compound at 10 uM and VX-809 at 1 uM)”. As for `CN(CCCNC(=O)c1cc(-c2ccccc2)on1)S(=O)(=O)c1ncc[nH]1` [Compound B2, N-(3-(N-methyl-1H-imidazole-2-sulfonamido)propyl)-5-phenylisoxazole-3-carboxamide], the entry is “** (activity ≥200% of VX-809 (1 uM) with compound at 10 uM and VX-809 at 1 uM)”; as for `O=C(NCCNS(=O)(=O)c1cc(CO)n[nH]1)c1cc(-c2ccccc2)on1` [Compound B3, N-(2-((3-(hydroxymethyl)-1H-pyrazole)-5-sulfonamido)ethyl)-5-phenylisoxazole-3-carboxamide], “* (activity 100-200% of VX-809 (1 uM) with compound at 10 uM and VX-809 at 1 uM)”. Regarding `O=C(NCCCNS(=O)(=O)c1cc(CO)n[nH]1)c1cc(-c2ccccc2)on1` [Compound B4, N-(3-((3-(hydroxymethyl)-1H-pyrazole)-5-sulfonamido)propyl)-5-phenylisoxazole-3-carboxamide], the Ieq activity entry is “** (activity ≥200% of VX-809 (1 uM) with compound at 10 uM and VX-809 at 1 uM)”. In the case of `O=C(NCCCNS(=O)(=O)c1ncccn1)c1cc(-c2ccccc2)on1` [Compound B5, 5-phenyl-N-(3-(pyrimidine-2-sulfonamido)propyl)isoxazole-3-carboxamide] it was “** (activity ≥200% of VX-809 (1 uM) with compound at 10 uM and VX-809 at 1 uM)”; in that of `O=C(NCCCNS(=O)(=O)c1ccccn1)c1cc(-c2ccccc2)on1` [Compound B6, 5-phenyl-N-(3-(pyridine-2-sulfonamido)propyl)isoxazole-3-carboxamide], “** (activity ≥200% of VX-809 (1 uM) with compound at 10 uM and VX-809 at 1 uM)”; in that of `Nc1cc(CO)nn1S(=O)(=O)CCNC(=O)c1cc(-c2ccccc2)on1` [Compound B7, N-(2-((5-amino-3-(hydroxymethyl)-1H-pyrazol-1-yl)sulfonyl)ethyl)-5-phenylisoxazole-3-carboxamide], “* (activity 100-200% of VX-809 (1 uM) with compound at 10 uM and VX-809 at 1 uM)”.

With `CN(CCCNC(=O)c1cc(-c2ccccc2)on1)S(=O)(=O)c1nccn1C` [Compound B10, N-(3-((N-1-dimethyl-1H-imidazole)-2-sulfonamido)propyl)-5-phenylisoxazole-3-carboxamide], the Ieq activity entry was “* (activity 100-200% of VX-809 (1 uM) with compound at 10 uM and VX-809 at 1 uM)”. Turning to `COCn1ccnc1S(=O)(=O)N(C)CCCNC(=O)c1cc(-c2ccccc2)on1` [Compound B11, N-(3-((1-(methoxymethyl)-N-methyl-1H-imidazole)-2-sulfonamido)propyl)-5-phenylisoxazole-3-carboxamide], the Ieq activity result was “** (activity ≥200% of VX-809 (1 uM) with compound at 10 uM and VX-809 at 1 uM)”.
